Type in all cases: cell-based
One assay concerns LNCaP/AR cells. Briefly: Inhibition of proliferation of prostate cancer cells LNCaP/AR (CCK-8). To be noted: 144 h, 6 days culture, CCK-8, OD 450 nm, read-out: IC50 (μM), inhibitory activity on prostate cancer cell LNCap/AR. The protocol: 1. Biological determination of the inhibitory effect on the proliferation of prostate cancer cells LNCaP/AR
Cell culture medium: RIPM1640 media, 10% FBS, 1% Pen Strep;
(§1) 1) LNCaP/AR cells were subcultured in cell culture medium, and the cells in good growth condition were seeded in a 96-well plate, with 80 μL per well (i.e. 1000 cells per well), and cultured overnight in a 37° C., 5% CO2 cell incubator.
2) The drug was prepared with dimethylsulfoxide (DMSO) as a 10 mM stock solution.
(§2) Immediately before use, the stock solution was diluted 3 times with DMSO, and then diluted as a 3-fold gradient to obtain 9 concentration gradients. Then, the compound of each concentration was diluted 200 times with the culture media (to ensure that the DMSO concentration in the culture system was 0.1%), and two multiple holes were set for each concentration. 20 μL of the diluted compound was added to the cell culture well (with a final concentration of 10 μM, 3.3 μM, 1.1 μM . . . ), and then shook gently to mix. In addition, three negative control wells with only cells and three blank control wells with only culture medium were included (6 wells being each added with DMSO diluted 200 times with 20 μL culture medium).
(§3) 1) After culturing for 6 days, 10 μL of CCK-8 was added to each well and continued culturing for 1 hour in a 37° C., 5% CO2 cell incubator.
(§4) 2) The absorbance (OD value) was measured at 450 nm using a multifunctional microplate reader.
(§5) 3) The data were analyzed by the Dose-response-inhibition equation in the software GraphPad Prism5, and the IC50 value was obtained.

Another assay relates to VCaP cells. The experiment in a line: Inhibition of proliferation of other prostate cancer cells: VCaP. To be noted: Homo sapiens, same method as LNCaP/AR. The protocol: as §1, §2, §3, §4, §5
(§6) 2. Biological determination of the inhibitory effect on the proliferation of other prostate cancer cells
(§7) The inhibitory activity of the compound according to the present invention on other drug-resistant prostate cancer cells was measured by the same method as described above, in which VCaP and 22RV1 cells were commercially available.

A further assay relates to 22RV1 cells. Briefly: Inhibition of proliferation of other prostate cancer cells: 22RV1. To be noted: Homo sapiens, same method as LNCaP/AR. Here is the method: as §1, §2, §3, §4, §5, §6, §7
The next assay concerns the target T1, androgen receptor (AR) (Homo sapiens, UniProt P10275).
T1 construct: host or cells: HEK293
T1 sequence (P10275 1-920): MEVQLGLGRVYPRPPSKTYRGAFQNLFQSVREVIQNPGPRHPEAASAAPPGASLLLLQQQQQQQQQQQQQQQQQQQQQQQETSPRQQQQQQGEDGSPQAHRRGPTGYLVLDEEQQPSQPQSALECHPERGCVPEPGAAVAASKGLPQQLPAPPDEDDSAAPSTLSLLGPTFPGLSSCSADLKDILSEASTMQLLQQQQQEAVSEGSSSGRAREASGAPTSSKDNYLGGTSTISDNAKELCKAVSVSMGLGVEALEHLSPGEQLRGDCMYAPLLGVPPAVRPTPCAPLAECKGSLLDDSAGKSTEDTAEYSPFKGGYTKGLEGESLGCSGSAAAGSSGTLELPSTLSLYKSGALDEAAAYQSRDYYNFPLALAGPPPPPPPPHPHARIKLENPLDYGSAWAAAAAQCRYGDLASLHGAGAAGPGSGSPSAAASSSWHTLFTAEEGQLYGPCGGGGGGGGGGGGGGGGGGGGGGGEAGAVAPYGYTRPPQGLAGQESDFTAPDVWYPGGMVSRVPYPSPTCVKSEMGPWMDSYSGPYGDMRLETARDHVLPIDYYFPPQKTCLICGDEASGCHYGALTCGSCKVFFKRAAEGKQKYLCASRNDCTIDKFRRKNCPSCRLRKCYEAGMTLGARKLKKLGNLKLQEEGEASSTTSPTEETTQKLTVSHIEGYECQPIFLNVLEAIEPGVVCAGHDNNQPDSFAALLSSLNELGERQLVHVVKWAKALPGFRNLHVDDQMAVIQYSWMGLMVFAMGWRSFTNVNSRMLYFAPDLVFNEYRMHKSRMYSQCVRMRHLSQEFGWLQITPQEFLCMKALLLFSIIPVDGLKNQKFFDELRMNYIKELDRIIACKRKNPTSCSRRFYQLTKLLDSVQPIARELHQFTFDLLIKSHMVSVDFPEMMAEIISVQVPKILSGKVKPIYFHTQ
Briefly: Inhibitory activity on the function of androgen receptor (AR), luciferase reporter in transfected cells. As to conditions: transfected with AR and pGL4.36, testosterone 2 nM, Steady-Glo. The protocol:
Experimental Example 2 the Inhibitory Activity of the Compound According to the Present Invention on the Function of Androgen Receptor (AR)
Androgen receptor clone (Origene, Cat. No. RC235415)
pGL4.36 vector (Promega, Cat. No. E1360)
1) The cell suspension was diluted with the culture medium for seeding cells to a concentration of 4.0×10^5 cells/ml, for plating and adding transfection reagents.
2) The diluted cell suspension was inoculated into a cell culture plate, with 100 μL per well, and the plate was placed in a cell incubator and cultured overnight.
3) The transfection reagent was prepared as 10 μL/well, and added into the cell culture plate after 15 min at room temperature, then the plate was placed in a cell incubator and cultured overnight.
4) The compound was diluted by a 3-fold gradient with TECAN sampler, to obtain 8 concentration gradients, and the final DMSO concentration was 0.25%. The diluted compound was cultured in a 37° C. incubator for 30 min.
5) 250 nL of testosterone at a final concentration of 2 nM was added to the control well with an […] sampler, placed in a cell incubator, and cultured overnight.
6) Steady-Glo was added at 100 μL/well to the cell culture plate, and then the plate was left at room temperature for 15 min, followed by reading on Envision.
The data were analyzed according to the formula % Effect=(Sample value−LC)/(HC−LC)*100, using XL-fit software (provided by Business Solutions Ltd., version number XL fit 5.0). The inhibition rate of each compound against androgen receptor (AR) was calculated, and the half-inhibitory concentration IC50 of each compound against androgen receptor (AR) was further calculated.

Structures are written as SMILES. A value given as a limit tells only on which side of the number the result lay.

In the case of `CCN(c1ccc(-n2cnc(C)c2)cc1)c1cc(-c2c(C)noc2C)ccc1C` [Compound 26], the IC50 in the assay on LNCaP/AR cells amounted to 1.14 µM; with VCaP cells, 1.16 µM; with 22RV1 cells, 4.08 µM.

Consider `CCN(c1ccc(-n2ccnc2)c(C(F)(F)F)c1)c1cc(-c2c(C)noc2C)ccc1C` [Compound 32], for which the figures for the IC50 with LNCaP/AR cells, in the assay with VCaP cells and in the assay with 22RV1 cells were 1.4 µM, 0.98 µM and 3.5 µM, respectively.

Consider `CCN(c1ccc(C#N)c(Cl)c1)c1cc(-c2c(C)nn(C)c2C)ccc1C` [Compound 2], for which the IC50 in the assay on LNCaP/AR cells came to 0.51 µM; in the assay with VCaP cells, 0.78 µM; in the assay with 22RV1 cells, 5.2 µM; on androgen receptor (AR), 0.78 µM.

`CCN(c1ccc(Br)cc1)c1cc(-c2c(C)noc2C)ccc1C` [Compound 116]: the IC50 was determined as 0.61 µM in the assay with LNCaP/AR cells, 0.63 µM in the assay with 22RV1 cells and 4.9 µM against androgen receptor (AR).

Regarding `CCN(c1ccc(C2(C#N)CC2)cc1)c1cc(-c2c(C)noc2C)ccc1C` [Compound 111, 1-(4-((5-(3,5-dimethylisoxazol-4-)-2-methylphenyl)(ethyl)amino)phenyl)cyclopropanecarbonitrile], the IC50 in the assay with LNCaP/AR cells stood at 0.14 µM; in the assay on 22RV1 cells, 0.27 µM; at androgen receptor (AR), 1.6 µM.

`CCN(c1ccc(-n2cnnc2)cc1)c1cc(-c2c(C)noc2C)ccc1C` [Compound 34]: the IC50 came out at 0.95 µM in the assay with LNCaP/AR cells, 1 µM with VCaP cells and 2.58 µM with 22RV1 cells.

Take `CCN(c1ccc(C#N)c(Cl)c1)c1cc(-c2c(C)noc2C)ccc1C` [Compound 14]: the IC50 in the assay with LNCaP/AR cells came out at 0.55 µM; at androgen receptor (AR), 1.5 µM.

Turning to `CCN(c1ccc(-n2ccnc2)c(Cl)c1)c1cc(-c2c(C)noc2C)ccc1C` [Compound 30], the values for the IC50 in the assay with LNCaP/AR cells, with VCaP cells and in the assay with 22RV1 cells were 0.9 µM, 2.27 µM and greater than 10 µM, respectively.

Take `CCN(c1ccc(-n2ccnn2)cc1)c1cc(-c2c(C)noc2C)ccc1C` [Compound 33]: the values for the IC50 with LNCaP/AR cells, in the assay with VCaP cells and in the assay with 22RV1 cells were 0.75 µM, 0.88 µM and 2.41 µM, respectively.

In the case of `CCN(c1ccc(C(C)(C)C#N)cc1)c1cc(-c2c(C)noc2C)ccc1C` [Compound 110], the IC50 with LNCaP/AR cells was 0.93 µM; against androgen receptor (AR) it was 1.6 µM.

On to `CCN(c1ccc(-n2ccnc2)c(F)c1)c1cc(-c2c(C)noc2C)ccc1C` [Compound 29], for which the IC50 in the assay on LNCaP/AR cells came out at 0.49 µM; in the assay with VCaP cells it was 1.22 µM; in the assay on 22RV1 cells, 5.6 µM; on androgen receptor (AR), 0.45 µM.

In the case of `CCN(c1ccc(-c2c(C)noc2C)cc1)c1cc(-c2c(C)noc2C)ccc1C` [Compound 104], the IC50 against androgen receptor (AR) worked out at 1.3 µM.

The compound `CCN(c1ccc(-c2ccnn2C)cc1)c1cc(-c2c(C)noc2C)ccc1C` [Compound 127] registered an IC50 at androgen receptor (AR) of 3.4 µM.

(Values after US20220177459A1, “AROMATIC AMINE COMPOUND AND USE THEREOF IN PREPARATION OF AR AND BRD4 DUAL INHIBITORS AND REGULATORS” (HINOVA PHARMACEUTICALS INC., priority 2019, published 2022).)
